Patent publication US9212204B2, “Treatment of rett syndrome using glycyl-L-2-methylprolyl-L-glutamic acid” (priority 2011, dated 2015)

Columns and labels:
[1] = system: cortical neurons injured with okadaic acid; assay: Okadaic acid injury of cortical cultures, MTT survival; format: cell-based, rat; details: 10 μM, 24 hours incubation, MTT-assay
Procedure: One cortical hemisphere from a postnatal day 1 rat was used and collected into 4 ml of DMEM. Trituration was performed using a 5 ml glass pipette and an 18-gauge needle. The cell suspension was sieved through a 100 μm cell strainer and washed in 50 ml DMEM (centrifugation for 5 min at 250 g). The sediment was resuspended in 20 ml DMEM+10% fetal calf serum. The suspension was added into two […] flasks (10 ml per flask) and cultivated at 37° C. in the presence of 10% CO2 followed by a change of the medium twice a week. When cells reached confluence, they were washed three times with PBS, adjusted to Neurobasal/B27 and incubated for another 3 days. This supernatant was frozen for transient storage at −80° C. […]
The cells were triturated once with a glass Pasteur pipette in 1 ml of Neurobasal/B27 medium and subsequently twice by using a 1 ml insulin syringe with a 22 gauge needle. […] Cells were counted and adjusted to 50,000 cells per 60 μl. […]
To cause toxic injury to neurons, we exposed neurons to 1:100 parts of okadaic acid at concentrations of 30 nM or 100 nM and 0.5 mM 3-nitropropionic acid (for cerebellar microexplants only). […] The survival rate was determined by a colorimetric end-point MTT-assay at 595 nm in a multi-well plate reader. For the cerebellar microexplants four windows (field of 0.65 mm^2) with highest cell density were chosen and cells displaying neurite outgrowth were counted.

[2] = Pharmacokinetics after intravenous bolus injection; format: in vivo, rat; details: 30 mg/kg single i.v. bolus; rat
Procedure: Adult male Wistar rats weighing between 180 and 240 g were used to determine the pharmacokinetics of GPE and […]. To facilitate intravenous bolus injections and blood sampling, all rats were surgically implanted with an indwelling jugular venous cannula under halothane anesthesia three days before the experiment. Groups of six rats were given a single intravenous bolus injection of either 30 mg/kg GPE or 10 mg/kg […] dissolved in 0.1M succinate buffer (pH 6.5). […] The samples were centrifuged at 3000 g for 15 min at 4° C. and the plasma removed and stored at -80° C. until extraction and assay by either radioimmunoassay (“RIA”) or reverse phase HPLC. The RIA and HPLC methods used were conventional. […] The k and half-life (t1/2) were calculated from the slope of the linear regression line in the elimination phase of the semi-logarithmic plot of plasma concentration versus time as: Log. C=-kt/2.3+log C0. Results were expressed as mean±standard error.

[3] = Degradation of GPE in vivo and in vitro
MeCP2 knock-out mice = details: U.S. Publication No. 2009/0099077; cited from earlier work
wild type young mice = details: Tropea et al., 2006; cited from earlier work

Q: What does the source list for `NCC(=O)N1CCC[C@H]1C(=O)N[C@@H](CCC(=O)O)C(=O)O` [GPE, glycyl-L-prolyl-L-glutamic acid]?
A: neuroprotection [1]: 64%; first order rate constant [2]: 0.15 ± 0.014 min⁻¹; degradation [3]: rapidly degraded; effect on life span (MeCP2 knock-out mice): prolong life; effect on neuronal function (MeCP2 knock-out mice): increase neuronal function; OD plasticity (wild type young mice): reduce
